For data set [1], the system named is ZIKV (MR766, Uganda). It counts as cell-based, Zika virus. The settings on record: Vero E6; ZIKV MOI 1; five days; highest concentration without cytotoxicity (MCC).
Data set [2] has as its system Vero E6 cell line. Conditions: compound concentration producing minimal changes in cell morphology, estimated by microscopy.
Data set [3] concerns Vero E6 cell line. The settings on record: for CC50: MTT.
The test system of data set [4] is ZIKV. The data set can be described thus: Time of drug addition assay (qRT-PCR). The data set is classed as cell-based, Zika virus. Conditions: Vero E6, MOI 1, 50 µM, 24 h pi. The method, then:
Vero E6 cells were seeded on 96-well plates at 3.5 × 10^4 well and incubated (37 °C, 5% CO2) overnight. The cells were infected for 1 h with MOI of 1. Cells were treated with 50 µM of compound 7. Cells were treated at three different times: 1 h before infection, concurrently with the infection, and one hour post-infection. After the infection, the supernatant was discarded and the cells were incubated for 24 h with the media, then RNA was isolated from the supernatant and quantified using qRT-PCR (see below).
(§1) For viral RNA isolation, the Total RNA Miniprep Kit (New England Biolabs, Ipswich, USA) was used, following the manufacturer’s instruction. After RNA elution, samples were stored at −80 °C until use. For the determination of viral RNA quantity, we used the Luna® Universal Probe One-Step RT-qPCR Kit (New England Biolabs, Ipswich, MA, USA). The primers used were ZIKV_NS1_F: […], ZIKV_NS1_R: […], and the probe was FAM-5′-CCC GCA GAT-3′ /ZEN/ 5′-TGG CAG CAG-3′-BHQ1. […]
We divided the samples into five groups based on the timing of treatment: no-treatment (ZIKV), pre-treatment for 1 h (pre), co-treatment (co), post-treatment for 1 h (post), and full treatment (full) (Figure 3A). Twenty-four hours post-infection (pi), we isolated viral RNA from the supernatant and quantified it using qRT-PCR. […]
On the technique in general: Real-time PCR tracks product formation cycle by cycle.

The test system of data set [5] is ZIKV. The data set is described as follows: Virion destabilization assay (RNase A, qRT-PCR). The data set is classed as biochemical, Zika virus. Conditions: 50 µM, 1 h, 37 °C, then RNase A.
Data set [6] has as its system ZIKV. The data set can be described thus: Entry assay (qRT-PCR). It counts as cell-based, Zika virus. The settings on record: Vero E6; MOI 1; infection 1 h 4 °C, then 50 µM 1 h 37 °C. How it is done:
(§2) Vero E6 cells were seeded on 96 well plate 3.5 × 10^4 well and incubated (37 °C, 5% CO2) overnight. 1 h before the infection we put the cells at 4 °C. During the entry assay cells were infected for 1 h at 4 °C and MOI of 1, then washed twice with PBS. Afterward, they were treated with 50 µM of compound 7, lasting for 1 h (37 °C, 5% CO2). During the binding assay the cells were infected as before for 1 h at 4 °C and at the same time treated with 50 µM of compound 7. Following both of the treatments, the cells were washed once with PBS, then RNA was isolated from the cells. Viral RNA was quantified using qRT-PCR (see below). This assay was developed based on the methods established by Lu et al..
as §1
(§3) To gain a more precise understanding of the mechanism of action of compound 7, binding and entry assays were performed. […] After incubation, cells were washed with PBS prior to RNA extraction, and viral RNA levels were quantified by qRT-PCR.

For data set [7], the system named is ZIKV. The data set can be described thus: Liposome-based capsid protection assay (virus–liposome fusion). The settings on record: trypsin-containing liposomes; pH 5.3; 10, 50 μM. It counts as biochemical, Zika virus.
The subject of data set [8] is ZIKV. The data set is described as follows: Binding assay (qRT-PCR). It counts as cell-based, Zika virus. Conditions: Vero E6; MOI 1; 50 µM; 1 h at 4 °C. The method, then: as §2, §1, §3
Data set [9] has as its system Vero E6 cells. The data set can be described thus: Phospholipidosis assay (LipidTOX Deep Red). The data set is classed as cell-based, African green monkey (Cercopithecus aethiops). Conditions: 48 h. How it is done:
Vero E6 cells were seeded in 96-well plates and treated with compound 7 at the indicated concentrations for 48 h. Propranolol (30 µM) was used as a positive control and DMSO as vehicle control. Phospholipid accumulation was detected using LipidTOX™ Deep Red phospholipidosis stain (Thermo Fisher Scientific, Waltham, MA, USA, H34158) according to the manufacturer’s instructions. Nuclei were counterstained with Hoechst 33342. Representative images were acquired by confocal microscopy.

The subject of data set [10] is ZIKV. The data set is described as follows: Virion inactivation assay (cell-free pre-incubation, plaque assay). It counts as cell-based, Zika virus.
The subject of data set [11] is CHIKV (Guatemala). The data set is described as follows: CPE inhibition assay, CHIKV on Vero E6. The data set is classed as cell-based, chikungunya virus. The settings on record: MOI 0.1, 3 days, MTT.
Data set [12] deals with SARS-CoV-2 (B.1.5 (G) isolate, Hungarian). The data set is classed as cell-based, severe acute respiratory syndrome coronavirus 2. The settings on record: Vero E6, 3 days, MTT.

“Also recorded” adds a separate entry of the source.

By CC50 is commonly meant the concentration at which the toxic effect on the cells reaches its halfway point. A higher CC50 goes with lower toxicity to the cells. One may read the EC50 as the concentration needed to bring the measured effect to its halfway point. Lower therefore signals a more potent agent.

As for `CC(=O)N[C@H]1[C@H](O[C@@H]2c3ccc(c(Cl)c3)Oc3cc4cc(c3O)Oc3ccc(cc3Cl)C[C@H]3NC(=O)[C@H](NC(=O)CCC(F)(F)C(F)(F)C(F)(F)C(F)(F)C(F)(F)C(F)(F)C(F)(F)C(F)(F)F)c5ccc(O)c(c5)Oc5cc(O)cc(c5)[C@H](NC3=O)C(=O)N[C@H]4C(=O)N[C@H]3C(=O)N[C@@H]2C(=O)N[C@H](C(=O)O)c2cc(O)cc(O)c2-c2cc3ccc2O)O[C@H](CO)[C@@H](O)[C@@H]1O` [Compound 6], in data set [1], the “cytopathic effects (microscopy)” value is on record as “we did not observed any CPE; also recorded: No cytopathic effects were observed”. Also, the MCC in data set [2] was over 60 µM. In addition, the 50% cytotoxic concentration (CC50) in data set [3] was 175 µM.

As for `CC(=O)NC1C(OC2c3ccc(c(Cl)c3)Oc3cc4cc(c3O)Oc3ccc(cc3Cl)CC3NC(=O)C(NC(=O)CCC(F)(F)C(F)(F)C(F)(F)C(F)(F)C(F)(F)C(F)(F)F)c5ccc(O)c(c5)Oc5cc(O)cc(c5)C(NC3=O)C(=O)NC4C(=O)NC3C(=O)NC2C(=O)NC(C(=O)O)c2cc(O)cc(O)c2-c2cc3ccc2O)OC(CO)C(O)C1O` (stereo not drawn) [Compound 7], the “viral RNA level vs no-treatment, pre-treatment (before infection)” value in data set [4] (1 h before infection) is “No significant inhibition”. In addition, the “viral RNA level vs no-treatment, post-treatment (after viral entry)” value in data set [4] (1 h post-infection) is recorded as “No significant inhibition”. For the same molecule, the “viral RNA copy number vs negative control (virion integrity)” value in data set [5] is recorded as “No significant reduction”. In addition, the “cytopathic effects (microscopy)” value in data set [1] is reported as “No cytopathic effects were observed”. For the same molecule, the “viral RNA level, entry assay, treated vs control” value in data set [6] was “No significant differences”. The MCC in data set [2] is listed as over 60 µM. Also, the CC50 in [3] stood at 203 µM. For the same molecule, the “capsid protein signal under low-pH fusion conditions (Western blot)” value in data set [7] is on record as “preserved the capsid signal”. For the same molecule, the “viral RNA level, binding assay, treated vs control” value in [8] is “No significant differences”. In addition, in data set [9], the “concentration from which phospholipidosis is detectable” value is at least 2500 nM. For the same molecule, the phospholipidosis response result in [9] (positive control propranolol 30 µM) was “weak phospholipidosis response”. Moreover, in [10], the “reduction of viral titer vs untreated control” value is “approximately one order of magnitude”.

`COC(=O)C1NC(=O)C2NC(=O)C(NC(=O)C3NC(=O)C4NC(=O)C(NC(=O)C(NC(=O)CCC(F)(F)C(F)(F)C(F)(F)C(F)(F)C(F)(F)C(F)(F)C(F)(F)C(F)(F)F)c5ccc(O)c(c5)Oc5cc4cc(O)c5C)C(O)c4ccc(cc4)Oc4cc3cc(c4O)Oc3ccc(cc3)C2O)c2ccc(O)c(c2)-c2c(O)cc(O)cc21` (stereo not drawn) [Compound 8]: the MCC in [2] is listed as over 20 µM. Moreover, in [3], the “cytotoxic effects (in words)” value is “slightly cytotoxic” and the CC50 came out at 62.6 µM.

On to `CC(=O)N[C@H]1[C@H](O[C@@H]2c3ccc(c(Cl)c3)Oc3cc4cc(c3O)Oc3ccc(cc3Cl)C[C@H]3NC(=O)[C@H](n5cc(COCCOCCCC(F)(F)C(F)(F)C(F)(F)C(F)(F)C(F)(F)C(F)(F)C(F)(F)C(F)(F)F)nn5)c5ccc(O)c(c5)Oc5cc(O)cc(c5)[C@H](NC3=O)C(=O)N[C@H]4C(=O)N[C@H]3C(=O)N[C@@H]2C(=O)N[C@H](C(=O)O)c2cc(O)cc(O)c2-c2cc3ccc2O)O[C@H](CO)[C@@H](O)[C@@H]1O` [Compound 1], for which the MCC in [2] is on record as over 50 µM. This molecule yielded a CC50 in data set [3] of 149 µM.

Consider `CC(=O)N[C@H]1[C@H](O[C@@H]2c3ccc(c(Cl)c3)Oc3cc4cc(c3O)Oc3ccc(cc3Cl)C[C@H]3NC(=O)[C@H](n5cc(COCCOCCCC(F)(F)C(F)(F)C(F)(F)C(F)(F)F)nn5)c5ccc(O)c(c5)Oc5cc(O)cc(c5)[C@H](NC3=O)C(=O)N[C@H]4C(=O)N[C@H]3C(=O)N[C@@H]2C(=O)N[C@H](C(=O)O)c2cc(O)cc(O)c2-c2cc3ccc2O)O[C@H](CO)[C@@H](O)[C@@H]1O` [Compound 3], for which the “cytopathic effects (microscopy)” value in [1] is recorded as “we did not observed any CPE; also recorded: No cytopathic effects were observed”. The MCC in data set [2] is reported as over 50 µM. This molecule displayed a CC50 in data set [3] of 198 µM.

As to `CC(=O)N[C@H]1[C@H](O[C@@H]2c3ccc(c(Cl)c3)Oc3cc4cc(c3O)Oc3ccc(cc3Cl)C[C@H]3NC(=O)[C@H](n5cc(COCCOCCCC(F)(F)C(F)(F)C(F)(F)C(F)(F)C(F)(F)C(F)(F)F)nn5)c5ccc(O)c(c5)Oc5cc(O)cc(c5)[C@H](NC3=O)C(=O)N[C@H]4C(=O)N[C@H]3C(=O)N[C@@H]2C(=O)N[C@H](C(=O)O)c2cc(O)cc(O)c2-c2cc3ccc2O)O[C@H](CO)[C@@H](O)[C@@H]1O` [Compound 2], in data set [1], the “cytopathic effects (microscopy)” value is reported as “we did not observed any CPE; also recorded: No cytopathic effects were observed”. In addition, the MCC in [2] is over 40 µM. In data set [3], this molecule returned a CC50 of 195 µM.

Take Teicoplanin [reference compound]: the MCC in data set [2] was over 60 µM. In data set [3], this molecule showed a CC50 of 280 µM. The half-maximal effective concentration (EC50) in data set [11] came out at 86.2 µM; in [12], 33.9 µM.

The values above are taken from publication PMC13415800 (Pharmaceutics, 2026).
